Data on 13 compounds can be found in patent publication US12030878B2 (BRISTOL-MYERS SQUIBB COMPANY, priority 2017, dated 2024).

What all share (assay type): cell-based
For assay [1], the target named is T1, human TLR9 (Homo sapiens, UniProt Q9NR96).
T1 construct: host or cells: HEK-Blue cells
T1 sequence (Q9NR96 26-1032): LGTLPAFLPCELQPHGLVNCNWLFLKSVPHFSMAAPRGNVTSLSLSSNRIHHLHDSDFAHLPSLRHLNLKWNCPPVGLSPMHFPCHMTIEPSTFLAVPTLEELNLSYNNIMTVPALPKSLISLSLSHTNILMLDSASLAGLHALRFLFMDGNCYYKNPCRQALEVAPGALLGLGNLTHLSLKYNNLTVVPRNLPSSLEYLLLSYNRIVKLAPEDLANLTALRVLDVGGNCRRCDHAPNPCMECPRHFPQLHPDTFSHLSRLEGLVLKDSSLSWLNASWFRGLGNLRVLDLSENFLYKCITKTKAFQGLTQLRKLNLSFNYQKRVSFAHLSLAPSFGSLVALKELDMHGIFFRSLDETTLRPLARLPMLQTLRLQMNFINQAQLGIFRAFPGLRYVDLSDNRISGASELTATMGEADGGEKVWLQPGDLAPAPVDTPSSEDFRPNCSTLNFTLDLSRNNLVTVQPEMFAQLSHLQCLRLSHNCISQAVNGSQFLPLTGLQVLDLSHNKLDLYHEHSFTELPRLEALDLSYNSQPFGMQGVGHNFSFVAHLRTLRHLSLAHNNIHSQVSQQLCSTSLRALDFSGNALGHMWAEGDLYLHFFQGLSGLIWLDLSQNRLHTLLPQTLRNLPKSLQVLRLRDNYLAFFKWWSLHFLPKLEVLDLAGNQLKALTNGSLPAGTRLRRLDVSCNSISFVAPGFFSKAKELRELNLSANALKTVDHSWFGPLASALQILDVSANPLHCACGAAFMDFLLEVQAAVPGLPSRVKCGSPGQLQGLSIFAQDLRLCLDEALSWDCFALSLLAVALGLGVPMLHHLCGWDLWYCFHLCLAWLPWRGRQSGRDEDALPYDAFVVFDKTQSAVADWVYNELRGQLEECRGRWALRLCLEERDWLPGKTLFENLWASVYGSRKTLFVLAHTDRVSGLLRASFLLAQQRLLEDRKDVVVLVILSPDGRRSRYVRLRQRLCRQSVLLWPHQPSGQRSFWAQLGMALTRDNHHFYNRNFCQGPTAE
Nature of the assay: TLR9 inhibition reporter assay (HEK-Blue SEAP). Conditions: HEK-Blue cells overexpressing human TLR9, stimulated with ODN2006 5 nM, 22 hour incubation. On the procedure:
(§1) TLR7/8/9 Inhibition Reporter Assays
(§2) HEK-Blue™-cells (Invivogen) overexpressing human TLR7, TLR8 or TLR9 receptors were used for screening inhibitors of these receptors using an inducible SEAP (secreted embryonic alkaline phosphatase) reporter gene under the control of the IFN-β minimal promoter fused to five NF-κB and AP-1-binding sites. Briefly, cells are seeded into Greiner 384 well plates (15000 cells per well for TLR7, 20.000 for TLR8 and 25,000 for TLR9) and then treated with test compounds in DMSO to yield a final dose response concentration range of 0.05 nM-50 μM. After a 30 minute compound pre-treatment at room temperature, the cells are then stimulated with a TLR7 ligand (gardiquimod at a final concentration of 7.5 μM), TLR8 ligand (R848 at a final concentration of 15.9 μM) or TLR9 ligand (ODN2006 at a final concentration of 5 nM) to activate NF-κB and AP-1 which induce the production of SEAP. After a 22 hour incubation at 37° C., 5% CO2, SEAP levels are determined with the addition of HEK-Blue™ Detection reagent (Invivogen), a cell culture medium that allows for detection of SEAP, according to manufacturer's specifications. The percent inhibition is determined as the % reduction in the HEK-Blue signal present in wells treated with agonist plus DMSO alone compared to wells treated with a known inhibitor.

Assay [2] concerns the target T2, human TLR7 (Homo sapiens, UniProt Q9NYK1).
T2 construct: host or cells: HEK-Blue cells
T2 sequence (Q9NYK1 27-1049): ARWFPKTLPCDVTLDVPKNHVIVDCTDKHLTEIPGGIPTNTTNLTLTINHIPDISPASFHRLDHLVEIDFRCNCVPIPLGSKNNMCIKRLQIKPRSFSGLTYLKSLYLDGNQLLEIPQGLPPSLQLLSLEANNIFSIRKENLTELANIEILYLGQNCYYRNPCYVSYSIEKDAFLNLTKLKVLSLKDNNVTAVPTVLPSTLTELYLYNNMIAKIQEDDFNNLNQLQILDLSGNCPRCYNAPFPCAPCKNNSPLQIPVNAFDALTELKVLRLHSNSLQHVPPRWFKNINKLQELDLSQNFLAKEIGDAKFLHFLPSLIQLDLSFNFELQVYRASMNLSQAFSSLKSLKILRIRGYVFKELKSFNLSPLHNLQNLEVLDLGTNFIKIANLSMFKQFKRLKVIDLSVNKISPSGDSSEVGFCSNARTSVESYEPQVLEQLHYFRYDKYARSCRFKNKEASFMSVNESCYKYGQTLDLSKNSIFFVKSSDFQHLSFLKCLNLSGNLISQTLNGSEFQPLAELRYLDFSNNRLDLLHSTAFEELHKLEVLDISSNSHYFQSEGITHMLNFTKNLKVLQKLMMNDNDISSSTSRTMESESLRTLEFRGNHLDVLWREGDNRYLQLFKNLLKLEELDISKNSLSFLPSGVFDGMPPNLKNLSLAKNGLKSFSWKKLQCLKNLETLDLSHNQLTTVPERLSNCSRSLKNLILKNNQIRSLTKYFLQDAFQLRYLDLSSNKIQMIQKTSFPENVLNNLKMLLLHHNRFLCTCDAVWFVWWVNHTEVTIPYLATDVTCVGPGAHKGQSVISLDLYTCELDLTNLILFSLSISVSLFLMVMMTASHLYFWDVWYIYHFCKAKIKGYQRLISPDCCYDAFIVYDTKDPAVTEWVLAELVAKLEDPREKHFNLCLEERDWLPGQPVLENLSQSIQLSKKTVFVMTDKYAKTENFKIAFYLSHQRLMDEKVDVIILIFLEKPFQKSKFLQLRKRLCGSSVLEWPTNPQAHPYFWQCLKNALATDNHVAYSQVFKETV
Nature of the assay: TLR7 inhibition reporter assay (HEK-Blue SEAP). Conditions: HEK-Blue cells overexpressing human TLR7, stimulated with gardiquimod 7.5 μM, 22 hour incubation. The method, then: as §1, §2
On the technique in general: In a reporter assay the amount or activity of a reporter protein is the signal.

Assay [3] addresses T3, human TLR8 (Homo sapiens, UniProt Q9NR97).
T3 construct: host or cells: HEK-Blue cells
T3 sequence (Q9NR97 27-1041): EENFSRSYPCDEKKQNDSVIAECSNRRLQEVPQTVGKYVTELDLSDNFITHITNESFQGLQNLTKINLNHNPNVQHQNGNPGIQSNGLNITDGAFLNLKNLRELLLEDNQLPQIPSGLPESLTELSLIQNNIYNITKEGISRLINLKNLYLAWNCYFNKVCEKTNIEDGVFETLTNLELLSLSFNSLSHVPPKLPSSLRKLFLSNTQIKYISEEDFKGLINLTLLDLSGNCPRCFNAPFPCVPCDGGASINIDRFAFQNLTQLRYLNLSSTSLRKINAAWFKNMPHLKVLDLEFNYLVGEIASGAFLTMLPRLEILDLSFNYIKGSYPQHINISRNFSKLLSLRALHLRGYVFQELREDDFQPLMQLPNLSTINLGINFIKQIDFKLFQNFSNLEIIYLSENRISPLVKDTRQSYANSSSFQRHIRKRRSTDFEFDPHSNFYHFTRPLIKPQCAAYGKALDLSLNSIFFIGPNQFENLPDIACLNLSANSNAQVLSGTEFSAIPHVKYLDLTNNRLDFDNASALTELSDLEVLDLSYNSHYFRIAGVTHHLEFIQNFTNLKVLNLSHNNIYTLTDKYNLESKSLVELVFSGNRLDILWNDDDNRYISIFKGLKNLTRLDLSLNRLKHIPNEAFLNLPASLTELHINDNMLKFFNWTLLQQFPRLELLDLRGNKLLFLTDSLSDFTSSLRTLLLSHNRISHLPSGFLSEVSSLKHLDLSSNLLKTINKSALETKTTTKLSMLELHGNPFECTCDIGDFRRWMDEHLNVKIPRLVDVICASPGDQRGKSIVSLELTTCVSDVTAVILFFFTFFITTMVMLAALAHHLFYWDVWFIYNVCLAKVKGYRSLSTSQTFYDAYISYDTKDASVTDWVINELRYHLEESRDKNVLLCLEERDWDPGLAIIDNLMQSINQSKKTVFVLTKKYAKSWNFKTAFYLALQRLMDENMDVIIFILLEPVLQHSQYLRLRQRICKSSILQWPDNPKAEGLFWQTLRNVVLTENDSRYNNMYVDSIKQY
Nature of the assay: TLR8 inhibition reporter assay (HEK-Blue SEAP). Conditions: HEK-Blue cells overexpressing human TLR8, stimulated with R848 15.9 μM, 22 hour incubation. The method, then: as §1, §2

Some results are limits rather than exact numbers.

As a reminder, the IC50 is the concentration that gives 50% inhibition. For `Cc1cc(-c2[nH]c3ccc(OC4CCNCC4)cc3c2C(C)C)cc(C)n1` [Example 1, 2-(2,6-dimethylpyridin-4-yl)-3-isopropyl-5-(piperidin-4-yloxy)-1H-indole], the figures for the IC50 in assay [1], in assay [2] and in assay [3] were 241 nM, 2.9 nM and 2.1 nM, respectively.
Taken in the same sequence, the figures for `Cc1cc(-c2[nH]c3ccc(OCCN4CCCC4)cc3c2C(C)C)cn2ncnc12` [Example 2, 6-(3-isopropyl-5-(2-(pyrrolidin-1-yl)ethoxy)-1H-indol-2-yl)-8-methyl-[1,2,4]triazolo[1,5-a]pyridine] were 2140 nM, 1 nM and 1.6 nM.
Taken in the same sequence, the figures for `Cc1cc(-c2[nH]c3ccc(OCCN4CCC(F)(F)CC4)cc3c2C(C)C)cn2ncnc12` [Example 3, 6-(5-(2-(4,4-difluoropiperidin-1-yl)ethoxy)-3-isopropyl-1H-indol-2-yl)-8-methyl-[1,2,4]triazolo[1,5-a]pyridine] were 18700 nM, 26.4 nM and 11 nM.
On the same counts, the results for `Cc1cc(-c2[nH]c3ccc(OCCN4CCCC(F)C4)cc3c2C(C)C)cn2ncnc12` (centres unmarked) [Example 4, 6-(5-(2-(3-fluoropiperidin-1-yl)ethoxy)-3-isopropyl-1H-indol-2-yl)-8-methyl-[1,2,4]triazolo[1,5-a]pyridine] are > 50000 nM, > 3130 nM and 15.4 nM.
In the case of `Cc1cc(-c2[nH]c3ccc(OCCN4CCOCC4)cc3c2C(C)C)cn2ncnc12` [Example 5, 4-(2-((3-isopropyl-2-(8-methyl-[1,2,4]triazolo[1,5-a]pyridin-6-yl)-1H-indol-5-yl)oxy)ethyl)morpholine], the IC50 in assay [1] came to 37300 nM; in assay [2], 8.1 nM; in assay [3] it was 3.3 nM.
As for `Cc1cc(-c2[nH]c3ccc(OCC4CCNCC4)cc3c2C(C)C)cc(C)n1` [Example 6, 2-(2,6-dimethylpyridin-4-yl)-3-isopropyl-5-(piperidin-4-ylmethoxy)-1H-indole], the results for the IC50 in assay [1], in assay [2] and in assay [3] were 406 nM, 1.8 nM and 4.4 nM, respectively.
Taken in the same sequence, the figures for `Cc1cc(-c2[nH]c3ccc(OCC4CCNCC4)cc3c2C(C)C)cn(C)c1=O` [Example 7, 5-(3-isopropyl-5-(piperidin-4-ylmethoxy)-1H-indol-2-yl)-1,3-dimethylpyridin-2(1H)-one] were 797 nM, 2.1 nM and 2.6 nM.
As for `Cc1cc(-c2[nH]c3ccc(O[C@H]4CCCNC4)cc3c2C(C)C)cn(C)c1=O` [Example 8, (S)-5-(3-isopropyl-5-(piperidin-3-yloxy)-1H-indol-2-yl)-1,3-dimethylpyridin-2(1H)-one], the IC50 amounted to 3520 nM in assay [1], 6.6 nM in assay [2] and 13.9 nM in assay [3].
As for `COc1cc(-c2[nH]c3ccc(OC4CCN(CC(=O)N(C)C)CC4)cc3c2C(C)C)cn2ncnc12` [Example 93, 2-(4-((3-isopropyl-2-(8-methoxy-[1,2,4]triazolo[1,5-a]pyridin-6-yl)-1H-indol-5-yl)oxy)piperidin-1-yl)-N,N-dimethylacetamide], the IC50 in assay [1] was determined as 1810 nM; in assay [3], 2.6 nM.
With `CNC(=O)CN1CCC(Oc2ccc3[nH]c(-c4cn(C)c(=O)c(C)c4C)c(C(C)C)c3c2)CC1` [Example 115, 2-(4-((3-isopropyl-2-(1,4,5-trimethyl-6-oxo-1,6-dihydropyridin-3-yl)-1H-indol-5-yl)oxy)piperidin-1-yl)-N-methylacetamide], the IC50 in assay [2] came out at 39.7 nM; in assay [3], 8.6 nM.
In turn, `Cc1cc(-c2[nH]c3ccc(OCc4c[nH]cn4)cc3c2C(C)C)ccn1` [Example 176, 5-((1H-imidazol-4-yl)methoxy)-3-isopropyl-2-(2-methylpyridin-4-yl)-1H-indole] came in with an IC50 in assay [1] of 13600 nM.
The same measure, in the same setting: for `Cc1cc(-c2[nH]c3ccc(OCc4c[nH]cn4)cc3c2C(C)C)ccn1` [Example 178, 5-((1H-imidazol-4-yl)methoxy)-3-isopropyl-2-(2-methylpyridin-4-yl)-1H-indole] the value was > 50000 nM.
Consider `Cc1cc(-c2[nH]c3ccc(OC4CCN(CCC(F)(F)F)CC4)cc3c2C(C)C)ccn1` [Example 187, 3-isopropyl-2-(2-methylpyridin-4-yl)-5-((1-(3,3,3-trifluoropropyl)piperidin-4-yl)oxy)-1H-indole], for which the IC50 in assay [2] worked out at 257 nM; in assay [3], 3.9 nM.
